Assay results from ChEMBL document CHEMBL1275577, “Study of the in vitro activities of rifaximin and comparator agents against 536 anaerobic intestinal bacteria from the perspective of potential utility in pathology involving bowel flora” (Antimicrob Agents Chemother, 2009).

Legend:
[1] = tested on: Parabacteroides distasonis; assay: Antimicrobial activity against Parabacteroides distasonis by Wadsworth agar dilution method; assay type: functional
[2] = tested on: Bacteroides thetaiotaomicron; assay: Antimicrobial activity against Bacteroides thetaiotaomicron by Wadsworth agar dilution method; assay type: functional
Bacteroides caccae = assay: Antimicrobial activity against Bacteroides caccae by Wadsworth agar dilution method; assay type: functional
Bacteroides nordii = assay: Antimicrobial activity against Bacteroides nordii by Wadsworth agar dilution method; assay type: functional
[3] = tested on: Desulfovibrio fairfieldensis; assay: Antimicrobial activity against Desulfovibrio fairfieldensis by Wadsworth agar dilution method; assay type: functional
Desulfovibrio piger = assay: Antimicrobial activity against Desulfovibrio piger by Wadsworth agar dilution method; assay type: functional
Desulfovibrio vulgaris = assay: Antimicrobial activity against Desulfovibrio vulgaris by Wadsworth agar dilution method; assay type: functional; conditions: Nitratidesulfovibrio vulgaris
Desulfovibrio sp. = assay: Antimicrobial activity against Desulfovibrio sp. by Wadsworth agar dilution method; assay type: functional
Fusobacterium mortiferum = assay: Antimicrobial activity against Fusobacterium mortiferum by Wadsworth agar dilution method in presence of beta-lactamase inhibitor Sulbactam; assay type: functional
Porphyromonas = assay: Antimicrobial activity against Porphyromonas sp. by Wadsworth agar dilution method; assay type: functional
Porphyromonas somerae = assay: Antimicrobial activity against Porphyromonas somerae by Wadsworth agar dilution method; assay type: functional
Porphyromonas uenonis = assay: Antimicrobial activity against Porphyromonas uenonis by Wadsworth agar dilution method; assay type: functional
Prevotella disiens = assay: Antimicrobial activity against Prevotella disiens by Wadsworth agar dilution method; assay type: functional
Prevotella intermedia = assay: Antimicrobial activity against Prevotella intermedia by Wadsworth agar dilution method; assay type: functional
Clostridioides difficile = assay: Antimicrobial activity against Clostridium difficile by Wadsworth agar dilution method; assay type: functional
Clostridium hathewayi = assay: Antimicrobial activity against Clostridium hathewayi by Wadsworth agar dilution method; assay type: functional; conditions: Hungatella hathewayi
[4] = tested on: Clostridium acetobutylicum; assay: Antimicrobial activity against Clostridium acetobutylicum by Wadsworth agar dilution method; assay type: functional
[5] = tested on: Clostridium aminobutyricum; assay: Antimicrobial activity against Clostridium aminobutyricum by Wadsworth agar dilution method; assay type: functional
[6] = tested on: Paraclostridium bifermentans; assay: Antimicrobial activity against Clostridium bifermentans by Wadsworth agar dilution method; assay type: functional
Clostridium butyricum = assay: Antimicrobial activity against Clostridium butyricum by Wadsworth agar dilution method; assay type: functional
Clostridium cocleatum = assay: Antimicrobial activity against Clostridium cocleatum by Wadsworth agar dilution method; assay type: functional; conditions: Thomasclavelia cocleata
Clostridium glycolicum = assay: Antimicrobial activity against Clostridium glycolicum by Wadsworth agar dilution method; assay type: functional; conditions: Terrisporobacter glycolicus
Tissierella praeacuta = assay: Antimicrobial activity against Clostridium hastiforme by Wadsworth agar dilution method; assay type: functional
[7] = tested on: Clostridium lactatifermentans; assay: Antimicrobial activity against Clostridium lactatifermentans by Wadsworth agar dilution method; assay type: functional; conditions: Anaerotignum lactatifermentans
Clostridium septicum = assay: Antimicrobial activity against Clostridium septicum by Wadsworth agar dilution method; assay type: functional
[8] = tested on: Paeniclostridium sordellii; assay: Antimicrobial activity against Clostridium sordellii by Wadsworth agar dilution method; assay type: functional; conditions: Paraclostridium sordellii
Clostridium spiroforme = assay: Antimicrobial activity against Clostridium spiroforme by Wadsworth agar dilution method; assay type: functional; conditions: Thomasclavelia spiroformis
Clostridium tertium = assay: Antimicrobial activity against Clostridium tertium by Wadsworth agar dilution method; assay type: functional
[9] = tested on: Bifidobacterium adolescentis; assay: Antimicrobial activity against Bifidobacterium adolescentis by Wadsworth agar dilution method; assay type: functional
Bifidobacterium breve = assay: Antimicrobial activity against Bifidobacterium breve by Wadsworth agar dilution method; assay type: functional
[10] = Antimicrobial activity against Bifidobacterium infantis by Wadsworth agar dilution method; assay type: functional, Bifidobacterium longum subsp. infantis; conditions: Bifidobacterium longum
[11] = tested on: Bifidobacterium pseudolongum; assay: Antimicrobial activity against Bifidobacterium pseudolongum by Wadsworth agar dilution method; assay type: functional
[12] = tested on: Catenibacterium mitsuokai; assay: Antimicrobial activity against Catenibacterium mitsuokai by Wadsworth agar dilution method; assay type: functional
[13] = tested on: Coprobacillus cateniformis; assay: Antimicrobial activity against Coprobacillus cateniformis by Wadsworth agar dilution method; assay type: functional
Eggerthella lenta = assay: Antimicrobial activity against Eggerthella lenta by Wadsworth agar dilution method; assay type: functional
Eubacterium biforme = assay: Antimicrobial activity against Eubacterium biforme by Wadsworth agar dilution method; assay type: functional; conditions: Holdemanella biformis
Eubacterium callanderi = assay: Antimicrobial activity against Eubacterium callanderi by Wadsworth agar dilution method; assay type: functional
Eubacterium saburreum = assay: Antimicrobial activity against Eubacterium saburreum by Wadsworth agar dilution method; assay type: functional; conditions: Lachnoanaerobaculum saburreum
Holdemania filiformis = assay: Antimicrobial activity against Holdemania filiformis by Wadsworth agar dilution method; assay type: functional
[14] = tested on: Lactobacillus acidophilus; assay: Antimicrobial activity against Lactobacillus acidophilus by Wadsworth agar dilution method; assay type: functional
Lactobacillus sp. = assay: Antimicrobial activity against Lactobacillus sp. by Wadsworth agar dilution method; assay type: functional
Cutibacterium acnes = assay: Antimicrobial activity against Propionibacterium acnes by Wadsworth agar dilution method; assay type: functional
Anaerococcus prevotii = assay: Antimicrobial activity against Anaerococcus prevotii by Wadsworth agar dilution method; assay type: functional
Anaerococcus tetradius = assay: Antimicrobial activity against Anaerococcus tetradius by Wadsworth agar dilution method; assay type: functional
Finegoldia magna = assay: Antimicrobial activity against Finegoldia magna by Wadsworth agar dilution method; assay type: functional
[15] = tested on: Peptoniphilus asaccharolyticus; assay: Antimicrobial activity against Peptoniphilus asaccharolyticus by Wadsworth agar dilution method; assay type: functional
Ruminococcus torques = assay: Antimicrobial activity against Ruminococcus torques by Wadsworth agar dilution method; assay type: functional; conditions: Mediterraneibacter torques

NC[C@@H]1O[C@H](O[C@H]2[C@@H](O)[C@H](O[C@@H]3[C@@H](O)[C@H](N)C[C@H](N)[C@H]3O[C@H]3O[C@H](CN)[C@@H](O)[C@H](O)[C@H]3N)O[C@@H]2CO)[C@H](N)[C@@H](O)[C@@H]1O [FRAMYCETIN]
> 1020 mg/L: MIC90 [1] | MIC50 [2] | MIC90 [2] | MIC50 (Bacteroides caccae) | MIC90 (Bacteroides caccae) | MIC50 (Bacteroides nordii) | MIC90 (Bacteroides nordii) | MIC90 (Fusobacterium mortiferum) | MIC90 (Porphyromonas) | MIC90 (Porphyromonas somerae) | MIC90 (Porphyromonas uenonis)
512 mg/L: MIC50 (Fusobacterium mortiferum) | MIC50 (Porphyromonas) | MIC50 (Porphyromonas somerae) | MIC50 (Porphyromonas uenonis) | MIC50 (Prevotella disiens) | MIC50 (Prevotella intermedia) | MIC90 (Clostridioides difficile) | MIC90 (Clostridium hathewayi) | MIC90 (Anaerococcus prevotii) | MIC90 (Anaerococcus tetradius) | MIC90 (Finegoldia magna) | MIC90 [15] | MIC90 (Ruminococcus torques)
64 mg/L: MIC50 (Clostridium hathewayi)
128 mg/L: MIC50 [9] | MIC50 (Bifidobacterium breve) | MIC50 [10] | MIC50 [11] | MIC50 [12] | MIC50 [13] | MIC50 (Eggerthella lenta) | MIC50 (Eubacterium biforme) | MIC50 (Eubacterium callanderi) | MIC50 (Eubacterium saburreum) | MIC50 (Holdemania filiformis) | MIC50 [14] | MIC50 (Lactobacillus sp.) | MIC50 (Cutibacterium acnes) | MIC50 (Anaerococcus prevotii) | MIC50 (Anaerococcus tetradius) | MIC50 (Finegoldia magna) | MIC50 [15] | MIC50 (Ruminococcus torques)
1020 mg/L: MIC50 [1] | MIC90 [3] | MIC90 (Desulfovibrio piger) | MIC90 (Desulfovibrio vulgaris) | MIC90 (Desulfovibrio sp.) | MIC90 (Prevotella disiens) | MIC90 (Prevotella intermedia) | MIC90 [4] | MIC90 [5] | MIC90 [6] | MIC90 (Clostridium butyricum) | MIC90 (Clostridium cocleatum) | MIC90 (Clostridium glycolicum) | MIC90 (Tissierella praeacuta) | MIC90 [7] | MIC90 (Clostridium septicum) | MIC90 [8] | MIC90 (Clostridium spiroforme) | MIC90 (Clostridium tertium) | MIC90 [9] | MIC90 (Bifidobacterium breve) | MIC90 [10] | MIC90 [11] | MIC90 [12] | MIC90 [13] | MIC90 (Eggerthella lenta) | MIC90 (Eubacterium biforme) | MIC90 (Eubacterium callanderi) | MIC90 (Eubacterium saburreum) | MIC90 (Holdemania filiformis) | MIC90 [14] | MIC90 (Lactobacillus sp.) | MIC90 (Cutibacterium acnes)
256 mg/L: MIC50 [3] | MIC50 (Desulfovibrio piger) | MIC50 (Desulfovibrio vulgaris) | MIC50 (Desulfovibrio sp.) | MIC50 (Clostridioides difficile) | MIC50 [4] | MIC50 [5] | MIC50 [6] | MIC50 (Clostridium butyricum) | MIC50 (Clostridium cocleatum) | MIC50 (Clostridium glycolicum) | MIC50 (Tissierella praeacuta) | MIC50 [7] | MIC50 (Clostridium septicum) | MIC50 [8] | MIC50 (Clostridium spiroforme) | MIC50 (Clostridium tertium)

CC(=O)Oc1ccccc1C(=O)Nc1ncc([N+](=O)[O-])s1 [NITAZOXANIDE]
0.5 mg/L: MIC50 (Porphyromonas) | MIC50 (Porphyromonas somerae) | MIC50 (Porphyromonas uenonis) | MIC90 (Clostridioides difficile) | MIC50 (Clostridium hathewayi) | MIC90 (Clostridium hathewayi) | MIC50 [4] | MIC50 [5] | MIC50 [6] | MIC50 (Clostridium butyricum) | MIC50 (Clostridium cocleatum) | MIC50 (Clostridium glycolicum) | MIC50 (Tissierella praeacuta) | MIC50 [7] | MIC50 (Clostridium septicum) | MIC50 [8] | MIC50 (Clostridium spiroforme) | MIC50 (Clostridium tertium) | MIC50 (Anaerococcus prevotii) | MIC50 (Anaerococcus tetradius) | MIC50 (Finegoldia magna) | MIC50 [15] | MIC50 (Ruminococcus torques)
1 mg/L: MIC50 [3] | MIC50 (Desulfovibrio piger) | MIC50 (Desulfovibrio vulgaris) | MIC50 (Desulfovibrio sp.) | MIC50 (Fusobacterium mortiferum) | MIC90 (Porphyromonas) | MIC90 (Porphyromonas somerae) | MIC90 (Porphyromonas uenonis) | MIC90 (Anaerococcus prevotii) | MIC90 (Anaerococcus tetradius) | MIC90 (Finegoldia magna) | MIC90 [15] | MIC90 (Ruminococcus torques)
0.25 mg/L: MIC (Clostridioides difficile) | MIC50 (Clostridioides difficile)
8 mg/L: MIC90 [2] | MIC90 (Fusobacterium mortiferum) | MIC90 (Prevotella disiens) | MIC90 (Prevotella intermedia)
2 mg/L: MIC50 [2] | MIC50 (Bacteroides caccae) | MIC50 [9] | MIC50 (Bifidobacterium breve) | MIC50 [10] | MIC50 [11] | MIC50 [12] | MIC50 [13] | MIC50 (Eggerthella lenta) | MIC50 (Eubacterium biforme) | MIC50 (Eubacterium callanderi) | MIC50 (Eubacterium saburreum) | MIC50 (Holdemania filiformis) | MIC50 [14] | MIC50 (Lactobacillus sp.) | MIC50 (Cutibacterium acnes)
32 mg/L: MIC90 [9] | MIC90 (Bifidobacterium breve) | MIC90 [10] | MIC90 [11] | MIC90 [12] | MIC90 [13] | MIC90 (Eggerthella lenta) | MIC90 (Eubacterium biforme) | MIC90 (Eubacterium callanderi) | MIC90 (Eubacterium saburreum) | MIC90 (Holdemania filiformis) | MIC90 [14] | MIC90 (Lactobacillus sp.) | MIC90 (Cutibacterium acnes)
4 mg/L: MIC50 [1] | MIC90 [1] | MIC90 (Bacteroides caccae) | MIC50 (Bacteroides nordii) | MIC90 (Bacteroides nordii) | MIC90 [3] | MIC90 (Desulfovibrio piger) | MIC90 (Desulfovibrio vulgaris) | MIC90 (Desulfovibrio sp.) | MIC50 (Prevotella disiens) | MIC50 (Prevotella intermedia) | MIC90 [4] | MIC90 [5] | MIC90 [6] | MIC90 (Clostridium butyricum) | MIC90 (Clostridium cocleatum) | MIC90 (Clostridium glycolicum) | MIC90 (Tissierella praeacuta) | MIC90 [7] | MIC90 (Clostridium septicum) | MIC90 [8] | MIC90 (Clostridium spiroforme) | MIC90 (Clostridium tertium)
